Measured values as given in the kinase profiling compilation of Christmann-Franck et al. (2016).

How the values were obtained:
Assay in all cases: radiometric filter-binding kinase assay
[1] = biological target: MKNK2 (human) (UniProt Q9HBH9)
[2] = biological target: HIPK2 (human) (UniProt Q9H2X6)
[3] = biological target: BTK (human) (UniProt Q06187)
[4] = biological target: PRKCA (human) (UniProt P17252)
[5] = biological target: NTRK1 (human) (UniProt P04629)
[6] = biological target: CSNK1D (human) (UniProt P48730)
[7] = biological target: MAPK14 (human) (UniProt Q16539)
[8] = biological target: MAPK11 (human) (UniProt Q15759)
[9] = biological target: YES1 (human) (UniProt P07947)
[10] = biological target: AURKA (human) (UniProt O14965)
[11] = biological target: NEK2 (human) (UniProt P51955)
[12] = biological target: INSR (human) (UniProt P06213)
[13] = biological target: MAPK15 (human) (UniProt Q8TD08)
[14] = biological target: RPS6KA5 KD1 KD2 (human) (UniProt O75582)
[15] = biological target: INSRR (human) (UniProt P14616)
[16] = biological target: MAPK1 (human) (UniProt P28482)
[17] = biological target: STK11 CAB39 STRADA (human) (UniProt Q9Y376+Q7RTN6+Q15831)
[18] = biological target: RIPK2 (human) (UniProt O43353)
[19] = biological target: NEK6 (human) (UniProt Q9HC98)
[20] = biological target: JAK2 JH1 JH2 (human) (UniProt O60674)
[21] = biological target: RPS6KA1 KD1 KD2 (human) (UniProt Q15418)
[22] = biological target: SRPK1 (human) (UniProt Q96SB4)
[23] = biological target: CSNK2A1 (human) (UniProt P68400)
[24] = biological target: CLK2 (human) (UniProt P49760)
[25] = biological target: DYRK2 (human) (UniProt Q92630)
[26] = biological target: FLT1 (human) (UniProt P17948)
[27] = biological target: MAPKAPK3 (human) (UniProt Q16644)
[28] = biological target: IRAK4 (human) (UniProt Q9NWZ3)
[29] = biological target: HIPK1 (human) (UniProt Q86Z02)
[30] = system: RPS6KB1 (human), P23443 [T412E]
[31] = system: AKT2 (human), P31751 [S474D]
[32] = biological target: MAP3K1 (human) (UniProt Q13233)
[33] = biological target: MAP3K9 (human) (UniProt P80192)
[34] = biological target: MARK4 (human) (UniProt Q96L34)
[35] = biological target: MARK3 (human) (UniProt P27448)

Sequence of MKNK2 (human) (Q9HBH9 whole entry, looked up): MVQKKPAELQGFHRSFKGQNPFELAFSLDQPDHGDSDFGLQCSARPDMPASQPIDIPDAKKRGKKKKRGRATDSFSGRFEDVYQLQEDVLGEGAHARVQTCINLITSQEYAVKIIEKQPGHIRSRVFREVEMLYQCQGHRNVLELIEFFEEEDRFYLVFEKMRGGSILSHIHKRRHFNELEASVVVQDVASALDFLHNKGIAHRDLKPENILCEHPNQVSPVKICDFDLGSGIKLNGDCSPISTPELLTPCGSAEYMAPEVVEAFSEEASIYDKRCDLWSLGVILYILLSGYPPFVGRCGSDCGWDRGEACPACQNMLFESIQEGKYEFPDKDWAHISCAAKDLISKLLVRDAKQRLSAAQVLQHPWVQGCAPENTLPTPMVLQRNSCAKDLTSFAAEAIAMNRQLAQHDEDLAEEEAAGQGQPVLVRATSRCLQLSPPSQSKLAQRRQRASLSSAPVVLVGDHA
Sequence of HIPK2 (human) (Q9H2X6 whole entry, looked up): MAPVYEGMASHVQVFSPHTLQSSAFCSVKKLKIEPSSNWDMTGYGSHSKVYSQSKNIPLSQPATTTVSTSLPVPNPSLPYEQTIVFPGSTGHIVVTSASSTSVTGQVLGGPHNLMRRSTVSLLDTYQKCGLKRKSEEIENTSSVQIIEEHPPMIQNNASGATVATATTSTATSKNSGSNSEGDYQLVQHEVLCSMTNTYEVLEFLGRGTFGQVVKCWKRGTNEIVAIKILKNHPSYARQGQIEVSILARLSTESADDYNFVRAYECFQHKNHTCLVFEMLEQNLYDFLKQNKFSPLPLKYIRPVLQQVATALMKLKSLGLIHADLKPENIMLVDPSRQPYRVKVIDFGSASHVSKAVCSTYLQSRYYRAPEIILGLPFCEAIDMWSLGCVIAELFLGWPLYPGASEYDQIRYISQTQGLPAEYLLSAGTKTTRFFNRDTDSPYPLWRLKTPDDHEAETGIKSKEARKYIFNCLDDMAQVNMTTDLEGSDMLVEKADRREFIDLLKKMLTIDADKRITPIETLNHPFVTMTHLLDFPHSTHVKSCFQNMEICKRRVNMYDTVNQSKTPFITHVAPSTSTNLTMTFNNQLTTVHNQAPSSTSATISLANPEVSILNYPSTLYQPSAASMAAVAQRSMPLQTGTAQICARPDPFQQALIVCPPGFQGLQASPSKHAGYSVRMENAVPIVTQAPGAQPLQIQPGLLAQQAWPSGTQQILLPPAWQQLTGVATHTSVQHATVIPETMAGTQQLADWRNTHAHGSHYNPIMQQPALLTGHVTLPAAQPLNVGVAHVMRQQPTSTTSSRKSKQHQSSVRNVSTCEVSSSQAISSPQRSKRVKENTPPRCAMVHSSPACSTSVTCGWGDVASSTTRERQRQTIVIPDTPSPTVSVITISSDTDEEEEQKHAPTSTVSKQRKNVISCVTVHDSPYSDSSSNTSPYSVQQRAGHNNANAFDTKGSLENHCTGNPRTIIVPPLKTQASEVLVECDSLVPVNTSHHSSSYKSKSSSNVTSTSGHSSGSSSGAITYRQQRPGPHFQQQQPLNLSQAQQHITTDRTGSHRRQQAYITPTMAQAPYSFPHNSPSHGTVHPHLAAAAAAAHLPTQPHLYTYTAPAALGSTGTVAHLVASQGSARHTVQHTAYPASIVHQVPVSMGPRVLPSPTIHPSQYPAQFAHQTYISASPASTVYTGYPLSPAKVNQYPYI
Sequence of MAPKAPK3 (human) (Q16644 whole entry, looked up): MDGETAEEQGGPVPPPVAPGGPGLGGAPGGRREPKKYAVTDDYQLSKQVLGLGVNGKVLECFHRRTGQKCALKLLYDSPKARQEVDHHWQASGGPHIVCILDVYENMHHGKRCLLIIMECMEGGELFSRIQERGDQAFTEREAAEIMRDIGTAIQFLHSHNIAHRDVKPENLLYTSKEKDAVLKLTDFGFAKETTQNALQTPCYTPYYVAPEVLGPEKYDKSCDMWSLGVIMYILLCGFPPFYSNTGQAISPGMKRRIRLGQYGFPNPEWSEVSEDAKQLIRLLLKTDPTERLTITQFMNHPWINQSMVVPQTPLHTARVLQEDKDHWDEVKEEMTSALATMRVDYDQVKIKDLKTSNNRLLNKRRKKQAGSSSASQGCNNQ
Sequence of RPS6KA1 KD1 KD2 (human) (Q15418 whole entry, looked up): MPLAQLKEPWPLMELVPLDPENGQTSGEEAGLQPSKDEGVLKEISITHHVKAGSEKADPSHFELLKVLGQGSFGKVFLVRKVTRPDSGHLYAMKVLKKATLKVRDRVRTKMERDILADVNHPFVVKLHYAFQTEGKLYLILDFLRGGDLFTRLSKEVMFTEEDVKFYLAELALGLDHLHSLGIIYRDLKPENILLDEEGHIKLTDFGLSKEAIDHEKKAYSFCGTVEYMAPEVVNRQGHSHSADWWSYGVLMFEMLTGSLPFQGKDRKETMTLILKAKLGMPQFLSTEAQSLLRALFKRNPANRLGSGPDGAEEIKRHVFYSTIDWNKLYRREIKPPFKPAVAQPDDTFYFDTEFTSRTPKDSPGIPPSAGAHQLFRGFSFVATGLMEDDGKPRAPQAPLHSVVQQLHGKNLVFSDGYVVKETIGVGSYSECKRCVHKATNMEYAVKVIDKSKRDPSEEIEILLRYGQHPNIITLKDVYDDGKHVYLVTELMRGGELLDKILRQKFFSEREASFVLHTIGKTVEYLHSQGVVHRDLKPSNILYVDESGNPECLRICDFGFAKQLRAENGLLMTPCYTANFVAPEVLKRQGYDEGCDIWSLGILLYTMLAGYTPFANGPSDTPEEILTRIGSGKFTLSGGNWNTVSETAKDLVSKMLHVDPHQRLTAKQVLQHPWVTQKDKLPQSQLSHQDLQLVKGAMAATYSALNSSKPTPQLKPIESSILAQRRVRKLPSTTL
Sequence of IRAK4 (human) (Q9NWZ3 whole entry, looked up): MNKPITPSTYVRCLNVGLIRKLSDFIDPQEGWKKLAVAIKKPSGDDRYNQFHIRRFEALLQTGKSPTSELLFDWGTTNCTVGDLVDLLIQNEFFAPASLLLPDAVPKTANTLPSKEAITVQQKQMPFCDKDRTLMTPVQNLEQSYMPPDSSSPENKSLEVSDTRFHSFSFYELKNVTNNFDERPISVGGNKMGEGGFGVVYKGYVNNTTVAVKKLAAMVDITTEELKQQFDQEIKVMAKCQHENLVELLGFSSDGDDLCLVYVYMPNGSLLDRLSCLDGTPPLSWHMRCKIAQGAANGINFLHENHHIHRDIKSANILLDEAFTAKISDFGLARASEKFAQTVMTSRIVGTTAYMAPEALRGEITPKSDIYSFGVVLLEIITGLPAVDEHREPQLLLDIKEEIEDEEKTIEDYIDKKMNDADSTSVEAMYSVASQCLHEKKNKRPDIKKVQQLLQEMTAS
Sequence of MAPK11 (human) (Q15759 whole entry, looked up): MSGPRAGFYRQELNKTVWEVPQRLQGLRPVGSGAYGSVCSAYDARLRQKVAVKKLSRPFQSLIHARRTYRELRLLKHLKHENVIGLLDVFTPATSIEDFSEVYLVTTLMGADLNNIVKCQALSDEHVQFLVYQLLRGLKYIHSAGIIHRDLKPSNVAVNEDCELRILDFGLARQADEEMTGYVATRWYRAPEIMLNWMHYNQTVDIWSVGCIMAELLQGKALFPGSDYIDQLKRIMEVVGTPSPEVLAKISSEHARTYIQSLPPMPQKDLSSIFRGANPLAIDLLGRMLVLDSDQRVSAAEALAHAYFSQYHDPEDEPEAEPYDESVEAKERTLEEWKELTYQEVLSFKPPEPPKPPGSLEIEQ
Sequence of RIPK2 (human) (O43353 whole entry, looked up): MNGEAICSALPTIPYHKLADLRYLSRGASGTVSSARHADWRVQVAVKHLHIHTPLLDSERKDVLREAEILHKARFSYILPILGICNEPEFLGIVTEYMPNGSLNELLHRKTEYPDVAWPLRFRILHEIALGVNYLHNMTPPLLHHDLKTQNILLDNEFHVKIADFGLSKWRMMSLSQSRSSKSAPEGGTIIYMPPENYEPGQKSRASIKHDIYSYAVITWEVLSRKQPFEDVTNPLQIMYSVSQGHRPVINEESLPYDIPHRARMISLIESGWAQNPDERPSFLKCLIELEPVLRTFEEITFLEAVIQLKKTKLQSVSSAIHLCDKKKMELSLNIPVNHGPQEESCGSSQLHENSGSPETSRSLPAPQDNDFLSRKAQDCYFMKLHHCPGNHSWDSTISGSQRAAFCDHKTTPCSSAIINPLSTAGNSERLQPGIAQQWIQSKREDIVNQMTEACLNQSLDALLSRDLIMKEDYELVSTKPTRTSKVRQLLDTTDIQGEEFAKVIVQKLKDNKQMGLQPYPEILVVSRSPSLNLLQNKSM
Sequence of CSNK1D (human) (P48730 whole entry, looked up): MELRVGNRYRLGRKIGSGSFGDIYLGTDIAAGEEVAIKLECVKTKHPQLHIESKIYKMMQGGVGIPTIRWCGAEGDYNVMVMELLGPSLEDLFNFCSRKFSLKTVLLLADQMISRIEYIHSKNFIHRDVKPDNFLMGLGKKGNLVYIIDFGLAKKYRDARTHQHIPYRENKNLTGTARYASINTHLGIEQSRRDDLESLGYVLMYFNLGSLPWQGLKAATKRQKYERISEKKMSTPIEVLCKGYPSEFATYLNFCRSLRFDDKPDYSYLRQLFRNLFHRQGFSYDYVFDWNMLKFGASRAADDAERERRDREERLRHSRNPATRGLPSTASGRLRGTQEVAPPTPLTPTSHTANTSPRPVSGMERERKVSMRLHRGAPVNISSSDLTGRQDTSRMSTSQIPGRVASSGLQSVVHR
Sequence of MAPK14 (human) (Q16539 whole entry, looked up): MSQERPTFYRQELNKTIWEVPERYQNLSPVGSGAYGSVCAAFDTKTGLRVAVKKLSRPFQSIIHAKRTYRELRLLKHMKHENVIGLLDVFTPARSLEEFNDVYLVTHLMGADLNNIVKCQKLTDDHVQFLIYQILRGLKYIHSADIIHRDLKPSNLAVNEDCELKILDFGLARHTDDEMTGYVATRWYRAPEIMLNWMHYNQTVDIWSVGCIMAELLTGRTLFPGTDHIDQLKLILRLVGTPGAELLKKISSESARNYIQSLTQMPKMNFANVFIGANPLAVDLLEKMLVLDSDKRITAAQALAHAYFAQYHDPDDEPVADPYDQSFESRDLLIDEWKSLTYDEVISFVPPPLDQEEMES

- residual activity ([1]; compound 1.0 µM): 105%
- residual activity ([1]; compound 10.0 µM): 64%
- residual activity ([2]; compound 1.0 µM): 22%
- residual activity ([2]; compound 10.0 µM): 11%
- residual activity ([3]; compound 1.0 µM): 98%
- residual activity ([3]; compound 10.0 µM): 84%
- residual activity ([4]; compound 1.0 µM): 107%
- residual activity ([4]; compound 10.0 µM): 59%
- residual activity ([5]; compound 1.0 µM): 104%
- residual activity ([5]; compound 10.0 µM): 71%
- residual activity ([6]; compound 1.0 µM): 86%
- residual activity ([6]; compound 10.0 µM): 41%
- residual activity ([7]; compound 1.0 µM): 102%
- residual activity ([7]; compound 10.0 µM): 107%
- residual activity ([8]; compound 1.0 µM): 102%
- residual activity ([8]; compound 10.0 µM): 100%
- residual activity ([9]; compound 1.0 µM): 100%
- residual activity ([9]; compound 10.0 µM): 87%
- residual activity ([10]; compound 1.0 µM): 108%
- residual activity ([10]; compound 10.0 µM): 63%
- residual activity ([11]; compound 1.0 µM): 108%
- residual activity ([11]; compound 10.0 µM): 113%
- residual activity ([12]; compound 1.0 µM): 100%
- residual activity ([12]; compound 10.0 µM): 91%
- residual activity ([14]; compound 1.0 µM): 90%
- residual activity ([14]; compound 10.0 µM): 22%
- residual activity ([15]; compound 1.0 µM): 67%
- residual activity ([15]; compound 10.0 µM): 27%
- residual activity ([16]; compound 1.0 µM): 114%
- residual activity ([16]; compound 10.0 µM): 95%
- residual activity ([17]; compound 1.0 µM): 85%
- residual activity ([17]; compound 10.0 µM): 64%
- residual activity ([18]; compound 1.0 µM): 83%
- residual activity ([18]; compound 10.0 µM): 30%
- residual activity ([19]; compound 1.0 µM): 93%
- residual activity ([19]; compound 10.0 µM): 83%
- residual activity ([20]; compound 1.0 µM): 99%
- residual activity ([20]; compound 10.0 µM): 46%
- residual activity ([21]; compound 1.0 µM): 122%
- residual activity ([21]; compound 10.0 µM): 57%
- residual activity ([22]; compound 1.0 µM): 112%
- residual activity ([22]; compound 10.0 µM): 105%
- residual activity ([23]; compound 1.0 µM): 20%
- residual activity ([23]; compound 10.0 µM): 4%
- residual activity ([24]; compound 1.0 µM): 73%
- residual activity ([24]; compound 10.0 µM): 14%
- residual activity ([25]; compound 1.0 µM): 16%
- residual activity ([25]; compound 10.0 µM): 3%
- residual activity ([26]; compound 1.0 µM): 96%
- residual activity ([26]; compound 10.0 µM): 29%
- residual activity ([27]; compound 1.0 µM): 109%
- residual activity ([27]; compound 10.0 µM): 95%
- residual activity ([28]; compound 1.0 µM): 90%
- residual activity ([28]; compound 10.0 µM): 88%
- residual activity ([29]; compound 1.0 µM): 65%
- residual activity ([29]; compound 10.0 µM): 12%
- residual activity ([30]; compound 1.0 µM): 98%
- residual activity ([30]; compound 10.0 µM): 50%
- residual activity ([31]; compound 1.0 µM): 106%
- residual activity ([31]; compound 10.0 µM): 98%
- residual activity ([32]; compound 1.0 µM): 109%
- residual activity ([32]; compound 10.0 µM): 93%
- residual activity ([33]; compound 1.0 µM): 126%
- residual activity ([33]; compound 10.0 µM): 91%
- residual activity ([34]; compound 1.0 µM): 106%
- residual activity ([34]; compound 10.0 µM): 97%
- residual activity ([35]; compound 1.0 µM): 100%
- residual activity ([35]; compound 10.0 µM): 51%
SMILES: FC(F)(F)c1ccc(-c2ccc(Oc3cncc4sc(-c5nn[nH]n5)cc34)cc2)cc1
- residual activity ([13]; compound 1.0 µM): 34%
- residual activity ([13]; compound 10.0 µM): 4%
